Data as given in the supplement of paper PMC10733146.

How the values were obtained:
Assay in all cases: viability relative to DMSO control (fraction); higher = less drug effect (more viable cells)
Conditions in all cases: 48 h
[1] = compound: OC[C@H]1O[C@@H](n2cnc3c2N=CNC[C@H]3O)C[C@@H]1O [Pentostatin]
In short: (§1)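 Viability was quantified by CellTiter-Glo luminescence and related to the median of 16 inner DMSO wells. Before that, primary mononuclear tumour cells, fresh or cryopreserved and Ficoll-isolated from blood or bone marrow or prepared from processed lymph node, were plated at 4 × 10^4 cells per well in 384-well plates containing pre-plated compounds at five concentrations, one well each. Plates were incubated in RPMI-1640 with penicillin/streptomycin, L-glutamine and human serum at 37 °C and 5% CO2 for 48 h.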

[2] = compound: CC(C)(O)CNc1nc(Nc2ccnc(C(F)(F)F)c2)nc(-c2cccc(C(F)(F)F)n2)n1 [AG-221 (Enasidinib)]
In short: as §1

[3] = compound: Cn1c(=O)n(-c2ccc(C(C)(C)C#N)cc2)c2c3cc(-c4cnc5ccccc5c4)ccc3ncc21 [BEZ235]
In short: as §1

[4] = compound: CN(C)C(=O)c1cc2cnc(Nc3ccc(N4CCNCC4)cn3)nc2n1C1CCCC1 [Ribociclib]
In short: as §1

[5] = compound: CC(C)N(C[C@H]1O[C@@H](n2cnc3c(N)ncnc32)[C@H](O)[C@@H]1O)[C@H]1C[C@@H](CCc2nc3cc(C(C)(C)C)ccc3[nH]2)C1 [EPZ-5676]
In short: as §1

[6] = compound: OCc1ccc(-c2ccc(-c3ccc(CO)s3)o2)s1
In short: as §1

[7] = compound: CC(C)C[C@H](NC(=O)[C@H](Cc1ccccc1)NC(=O)c1cnccn1)B(O)O [Bortezomib]
In short: as §1

[8] = compound: CCCS(=O)(=O)Nc1ccc(F)c(C(=O)c2c[nH]c3ncc(-c4ccc(Cl)cc4)cc23)c1F [Vemurafenib]
In short: as §1

[9] = compound: Nc1nc2n[nH]nc2c(=O)[nH]1 [8-Azaguanin]
In short: as §1

[10] = compound: COc1c(Cl)cc2c([nH]c3cnccc32)c1NC(=O)c1cccnc1C [MLN-120B]
In short: as §1

[11] = compound: NC(=O)c1ccc(I)c([N+](=O)[O-])c1 [Iniparib]
In short: as §1

[12] = compound: O=C(CCCCCCC(=O)Nc1ccccc1)NO [Vorinostat]
In short: as §1

[13] = compound: Cc1[nH]c2ccccc2c1CCNCc1ccc(/C=C/C(=O)NO)cc1 [Panobinostat]
In short: as §1

[14] = compound: CC[C@@H]1C(=O)N(C)c2cnc(Nc3ccc(C(=O)N[C@H]4CC[C@H](N5CCN(CC6CC6)CC5)CC4)cc3OC)nc2N1C(C)C [BI6727]
In short: as §1

[15] = compound: COc1nc(N)nc2c1ncn2[C@@H]1O[C@H](CO)[C@@H](O)[C@@H]1O [Nelarabine]
In short: as §1

Test System: primary BL patient cells (S005)
- viability ([1]; 0.03 µM): 0.881
- viability ([1]; 0.15 µM): 0.79
- viability ([1]; 0.75 µM): 1
- viability ([1]; 3.75 µM): 0.914
- viability ([1]; 18.76 µM): 0.909
- viability ([2]; 0.024 µM): 0.867
- viability ([2]; 0.12 µM): 1.43
- viability ([2]; 0.6 µM): 0.806
- viability ([2]; 3 µM): 1.26
- viability ([2]; 15 µM): 1.35
- viability ([3]; 0.024 µM): 1.28
- viability ([3]; 0.12 µM): 0.972
- viability ([3]; 0.6 µM): 1.12
- viability ([3]; 3 µM): 0.756
- viability ([3]; 15 µM): 0.544
- viability ([4]; 0.024 µM): 1.06
- viability ([4]; 0.12 µM): 1.41
- viability ([4]; 0.6 µM): 1.08
- viability ([4]; 3 µM): 0.993
- viability ([4]; 15 µM): 1.15
- viability ([5]; 0.0032 µM): 1.54
- viability ([5]; 0.016 µM): 1.13
- viability ([5]; 0.08 µM): 1.46
- viability ([5]; 0.4 µM): 1.35
- viability ([5]; 2 µM): 1
- viability ([6]; 0.024 µM): 0.798
- viability ([6]; 0.12 µM): 0.926
- viability ([6]; 0.6 µM): 0.821
- viability ([6]; 3 µM): 0.931
- viability ([6]; 15 µM): 0.616
- viability ([7]; 0.008 µM): 1.57
- viability ([7]; 0.04 µM): 0.959
- viability ([7]; 0.2 µM): 1.54
- viability ([7]; 1 µM): 0.964
- viability ([7]; 5 µM): 1.44
- viability ([8]; 0.024 µM): 0.966
- viability ([8]; 0.12 µM): 0.993
- viability ([8]; 0.6 µM): 0.989
- viability ([8]; 3 µM): 1.07
- viability ([8]; 15 µM): 1.1
- viability ([9]; 0.032 µM): 0.991
- viability ([9]; 0.16 µM): 1.05
- viability ([9]; 0.8 µM): 0.978
- viability ([9]; 4 µM): 0.812
- viability ([9]; 20 µM): 0.658
- viability ([10]; 0.024 µM): 0.979
- viability ([10]; 0.12 µM): 1.01
- viability ([10]; 0.6 µM): 0.981
- viability ([10]; 3 µM): 1.01
- viability ([10]; 15 µM): 0.861
- viability ([11]; 0.024 µM): 0.983
- viability ([11]; 0.12 µM): 0.913
- viability ([11]; 0.6 µM): 0.829
- viability ([11]; 3 µM): 0.849
- viability ([11]; 15 µM): 0.626
- viability ([12]; 0.016 µM): 0.977
- viability ([12]; 0.08 µM): 0.869
- viability ([12]; 0.4 µM): 0.863
- viability ([12]; 2 µM): 0.595
- viability ([12]; 10 µM): 0.689
- viability ([13]; 0.00064 µM): 0.9
- viability ([13]; 0.0032 µM): 0.723
- viability ([13]; 0.016 µM): 0.562
- viability ([13]; 0.08 µM): 0.55
- viability ([13]; 0.4 µM): 0.454
- viability ([14]; 0.024 µM): 0.931
- viability ([14]; 0.12 µM): 0.881
- viability ([14]; 0.6 µM): 0.9
- viability ([14]; 3 µM): 0.725
- viability ([14]; 15 µM): 0.483
- viability ([15]; 0.024 µM): 0.894
- viability ([15]; 0.12 µM): 0.99
- viability ([15]; 0.6 µM): 0.893
- viability ([15]; 3 µM): 0.996
- viability ([15]; 15 µM): 0.873

Test System: primary MCL patient cells (S063)
- viability ([1]; 0.03 µM): 0.96
- viability ([1]; 0.15 µM): 0.997
- viability ([1]; 0.75 µM): 0.972
- viability ([1]; 3.75 µM): 0.927
- viability ([1]; 18.76 µM): 0.868
- viability ([2]; 0.024 µM): 0.914
- viability ([2]; 0.12 µM): 0.894
- viability ([2]; 0.6 µM): 1.05
- viability ([2]; 3 µM): 0.84
- viability ([2]; 15 µM): 0.943
- viability ([3]; 0.024 µM): 0.934
- viability ([3]; 0.12 µM): 1.11
- viability ([3]; 0.6 µM): 0.907
- viability ([3]; 3 µM): 0.971
- viability ([3]; 15 µM): 0.578
- viability ([4]; 0.024 µM): 1.05
- viability ([4]; 0.12 µM): 0.964
- viability ([4]; 0.6 µM): 1.04
- viability ([4]; 3 µM): 0.927
- viability ([4]; 15 µM): 0.679
- viability ([5]; 0.0032 µM): 0.944
- viability ([5]; 0.016 µM): 1.12
- viability ([5]; 0.08 µM): 0.956
- viability ([5]; 0.4 µM): 1.03
- viability ([5]; 2 µM): 1.11
- viability ([6]; 0.024 µM): 1.04
- viability ([6]; 0.12 µM): 1.04
- viability ([6]; 0.6 µM): 1
- viability ([6]; 3 µM): 0.933
- viability ([6]; 15 µM): 0.51
- viability ([7]; 0.008 µM): 0.91
- viability ([7]; 0.04 µM): 0.969
- viability ([7]; 0.2 µM): 0.884
- viability ([7]; 1 µM): 1.03
- viability ([7]; 5 µM): 0.9
- viability ([8]; 0.024 µM): 1.02
- viability ([8]; 0.12 µM): 1.01
- viability ([8]; 0.6 µM): 1.04
- viability ([8]; 3 µM): 1.04
- viability ([8]; 15 µM): 1.04
- viability ([9]; 0.032 µM): 1.03
- viability ([9]; 0.16 µM): 1.05
- viability ([9]; 0.8 µM): 0.794
- viability ([9]; 4 µM): 0.509
- viability ([9]; 20 µM): 0.252
- viability ([10]; 0.024 µM): 0.959
- viability ([10]; 0.12 µM): 0.924
- viability ([10]; 0.6 µM): 0.936
- viability ([10]; 3 µM): 0.814
- viability ([10]; 15 µM): 0.66
- viability ([11]; 0.024 µM): 1.07
- viability ([11]; 0.12 µM): 1.11
- viability ([11]; 0.6 µM): 0.978
- viability ([11]; 3 µM): 1.06
- viability ([11]; 15 µM): 0.73
- viability ([12]; 0.016 µM): 1.07
- viability ([12]; 0.08 µM): 1.06
- viability ([12]; 0.4 µM): 0.924
- viability ([12]; 2 µM): 0.365
- viability ([12]; 10 µM): 0.0214
- viability ([13]; 0.00064 µM): 1.03
- viability ([13]; 0.0032 µM): 0.93
- viability ([13]; 0.016 µM): 0.182
- viability ([13]; 0.08 µM): 0.0167
- viability ([13]; 0.4 µM): 0.0196
- viability ([14]; 0.024 µM): 0.918
- viability ([14]; 0.12 µM): 1.03
- viability ([14]; 0.6 µM): 0.951
- viability ([14]; 3 µM): 0.763
- viability ([14]; 15 µM): 0.308
- viability ([15]; 0.024 µM): 1.13
- viability ([15]; 0.12 µM): 1.14
- viability ([15]; 0.6 µM): 1.1
- viability ([15]; 3 µM): 1.15
- viability ([15]; 15 µM): 1.1
